# Experimental data taken from patent US20090234097A1, “VASODILATOR” (CALPIS CO., LTD., priority 2006, published 2009).
# Test system: thoracic aorta ring of a Wistar rat
# Experiment: Vasodilating test on phenylephrine-preconstricted aorta ring (Magnus apparatus)
# Details: at 10 mM (printed 10 mm); aorta ring preconstricted with 1 μM phenylephrine
# Procedure: The thoracic aorta of a Wistar rat was taken out, cut into 2 mm long, and made into an aorta ring. The ring was set in a Magnus apparatus (product name “micro tissue organ bath MTB-1Z”, manufactured by LABO SUPPORT CO., LTD.), and allowed to equilibrate with a constant tension. The constriction response of the aorta ring was confirmed with 50 mM KCl.
# Next, the aorta ring was preliminarily constricted with 1 μM phenylephrine, and VPP and IPP prepared in Synthesis Example were added at ten-fold increasing concentrations from 10^−9 M to observe the vasodilator response through the change in tension of the aorta ring. The dose dependency of the vasodilator response was also studied.
# The vasodilating test was conducted in the same way as in Example 1, except that the tripeptides VPP and IPP were replaced with amino acids, valine (Val) and proline (Pro), at the same concentration.
row,SMILES,vasodilator response (change in tension of the aorta ring)
1,"O=C(O)[C@@H]1CCCN1 [Pro, proline]",no vasodilator response was observed
2,"CC(C)[C@H](N)C(=O)O [Val, valine]",no vasodilator response was observed
